In US10793564B2, “Amino acid compounds and methods of use” (Pliant Therapeutics, Inc., priority 2018, dated 2020):

These compounds were tested against recombinant human integrin αVβ6 (Homo sapiens (Human), UniProt P06756+P18564) (assay: Solid phase integrin αVβ6 binding assay). Conditions: inhibition of recombinant TGFβ1 LAP binding to coated integrin, IC50 presented in four ranges, read-out: αvβ6 Inhibition IC50 (nM) - range.
Experimental: (§1) Microplates were coated with recombinant human integrin αVβ6 (2 μg/mL) in PBS (100 μL/well 25° C., overnight). The coating solution was removed, washed with wash buffer (0.05% Tween 20; 0.5 mM MnCl2; in 1×TBS). The plate was blocked with 200 μL/well of Block Buffer (1% BSA; 5% sucrose; 0.5 mM MnCl2; in 1×TBS) at 37° C. for 2 h. Dilutions of testing compounds and recombinant TGFβ1 LAP (0.67 μg/mL) in binding buffer (0.05% BSA; 2.5% sucrose; 0.5 mM MnCl2; in 1×TBS) were added. The plate was incubated for 2 hours at 25° C., washed, and incubated for 1 hour with Biotin-Anti-hLAP. Bound antibody was detected by peroxidase-conjugated streptavidin. The IC50 values for testing compounds were calculated by a four-parameter logistic regression.
The compounds tested were compound samples prepared according to procedures described in the Synthetic Examples section, with the stereochemical purity as indicated in the Examples.
as §1, with “A third series of exemplary compounds was selected for testing in the solid phase integrin αVβ6 binding assay. The compounds tested were compound samples prepared according to procedures described in the Synthetic Examples section, with the stereochemical purity as indicated in the Examples. As in Example B1, microplates were” for “Microplates were”, “(0.67 g/mL)” for “(0.67 μg/mL)”

Sequence of recombinant human integrin αVβ6 (P06756 31-992): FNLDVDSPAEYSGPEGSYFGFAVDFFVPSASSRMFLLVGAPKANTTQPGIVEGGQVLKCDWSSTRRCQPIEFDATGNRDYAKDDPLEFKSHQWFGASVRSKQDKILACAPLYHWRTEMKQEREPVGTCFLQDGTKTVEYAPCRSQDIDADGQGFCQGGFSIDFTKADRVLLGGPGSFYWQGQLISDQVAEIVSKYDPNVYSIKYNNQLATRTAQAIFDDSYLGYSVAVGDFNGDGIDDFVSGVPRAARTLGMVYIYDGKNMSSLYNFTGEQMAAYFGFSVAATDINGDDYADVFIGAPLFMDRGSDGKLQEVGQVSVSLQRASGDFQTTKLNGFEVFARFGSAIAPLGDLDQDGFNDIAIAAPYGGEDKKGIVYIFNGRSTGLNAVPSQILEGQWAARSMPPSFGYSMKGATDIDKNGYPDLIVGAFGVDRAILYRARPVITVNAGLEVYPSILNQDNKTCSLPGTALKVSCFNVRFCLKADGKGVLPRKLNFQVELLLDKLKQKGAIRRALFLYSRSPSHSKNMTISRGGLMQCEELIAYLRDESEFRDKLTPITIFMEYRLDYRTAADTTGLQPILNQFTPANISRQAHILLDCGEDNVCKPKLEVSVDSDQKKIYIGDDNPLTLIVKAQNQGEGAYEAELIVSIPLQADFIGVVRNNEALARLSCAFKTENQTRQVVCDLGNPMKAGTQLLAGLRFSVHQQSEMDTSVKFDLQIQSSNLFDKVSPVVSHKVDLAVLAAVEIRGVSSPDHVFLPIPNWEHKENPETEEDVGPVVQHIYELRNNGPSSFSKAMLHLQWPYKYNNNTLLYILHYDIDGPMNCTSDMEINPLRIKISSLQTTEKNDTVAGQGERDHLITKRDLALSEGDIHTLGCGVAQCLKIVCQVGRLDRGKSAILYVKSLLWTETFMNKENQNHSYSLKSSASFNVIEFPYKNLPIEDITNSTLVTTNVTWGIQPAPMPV
Sequence of recombinant human integrin αVβ6 (P18564 22-707): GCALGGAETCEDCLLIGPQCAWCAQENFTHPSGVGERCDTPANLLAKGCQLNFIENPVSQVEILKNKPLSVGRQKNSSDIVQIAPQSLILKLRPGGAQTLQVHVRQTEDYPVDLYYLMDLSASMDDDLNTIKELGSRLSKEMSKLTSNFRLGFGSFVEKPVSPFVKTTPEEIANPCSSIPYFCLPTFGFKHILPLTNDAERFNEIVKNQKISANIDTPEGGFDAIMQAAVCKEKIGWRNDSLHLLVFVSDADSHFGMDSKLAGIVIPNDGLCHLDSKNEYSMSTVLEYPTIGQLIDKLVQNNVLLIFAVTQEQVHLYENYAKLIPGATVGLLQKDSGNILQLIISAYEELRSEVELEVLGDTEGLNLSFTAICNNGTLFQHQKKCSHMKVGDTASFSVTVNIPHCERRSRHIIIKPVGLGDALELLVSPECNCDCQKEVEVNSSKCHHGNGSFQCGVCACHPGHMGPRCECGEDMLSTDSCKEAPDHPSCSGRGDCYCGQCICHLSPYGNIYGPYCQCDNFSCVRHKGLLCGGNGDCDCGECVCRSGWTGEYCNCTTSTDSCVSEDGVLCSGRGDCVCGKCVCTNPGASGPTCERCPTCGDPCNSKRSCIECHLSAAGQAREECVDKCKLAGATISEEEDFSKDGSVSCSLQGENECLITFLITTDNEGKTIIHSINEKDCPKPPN

IC50, 50 to 250 nM:
COCCN(CCCCc1ccc2c(n1)NCCC2)CC[C@H](Nc1ncnc2cc(Cl)ccc12)C(=O)O [Compound 37, (S)-2-((7-chloroquinazolin-4-yl)amino)-4-((2-methoxyethyl) (4-(5,6,7,8-tetrahydro-1,8-naphthyridin-2-yl)butyl)amino) butanoic Acid]

IC50, > 1000 nM:
COCCN(CCCCc1ccc2c(n1)NCCC2)CC[C@H](Nc1nccc2ccccc12)C(=O)O [Compound 34, (S)-2-(isoquinolin-1-ylamino)-4-((2-methoxyethyl) (4-(5,6,7,8-tetrahydro-1,8-naphthyridin-2-yl)butyl)amino) butanoic Acid]
COCCN(CCCCc1ccc2c(n1)NCCC2)CC[C@H](Nc1ccnc2ccccc12)C(=O)O [Compound 36, (S)-4-((2-methoxyethyl) (4-(5,6,7,8-tetrahydro-1,8-naphthyridin-2-yl)butyl)amino)-2-(quinolin-4-ylamino) butanoic Acid]

IC50, < 50 nM:
O=C(O)[C@H](CCN(CCCCc1ccc2c(n1)NCCC2)CCOc1ccccc1)Nc1ncnc2ccccc12 [Compound 28, (S)-4-((2-phenoxyethyl) (4-(5,6,7,8-tetrahydro-1,8-naphthyridin-2-yl)butyl)amino)-2-(quinazolin-4-ylamino) butanoic Acid]
O=C(O)[C@H](CCN(CCCCc1ccc2c(n1)NCCC2)CCC(F)F)Nc1ncnc2ccccc12 [Compound 29, (S)-4-((3,3-difluoropropyl) (4-(5,6,7,8-tetrahydro-1,8-naphthyridin-2-yl)butyl)amino)-2-(quinazolin-4-ylamino) butanoic Acid]
O=C(O)[C@H](CCN(CCCF)CCCCc1ccc2c(n1)NCCC2)Nc1ncnc2ccccc12 [Compound 30, (S)-4-((3-fluoropropyl) (4-(5,6,7,8-tetrahydro-1,8-naphthyridin-2-yl)butyl)amino)-2-(quinazolin-4-ylamino) butanoic Acid]
COC[C@@H](F)CN(CCCCc1ccc2c(n1)NCCC2)CC[C@H](Nc1ncnc2ccccc12)C(=O)O [Compound 31, (S)-4-(((S)-2-fluoro-3-methoxypropyl) (4-(5,6,7,8-tetrahydro-1,8-naphthyridin-2-yl)butyl)amino)-2-(quinazolin-4-ylamino) butanoic Acid]
COC[C@@H](F)CN(CCCCc1ccc2c(n1)NCCC2)CC[C@H](Nc1nc(C)nc2cc(F)ccc12)C(=O)O [Compound 32, (S)-2-((7-fluoro-2-methylquinazolin-4-yl)amino)-4-(((S)-2-fluoro-3-methoxypropyl) (4-(5,6,7,8-tetrahydro-1,8-naphthyridin-2-yl)butyl)amino) butanoic Acid]
Cc1nc(N[C@@H](CCN(CCCCc2ccc3c(n2)NCCC3)CC2CC(F)(F)C2)C(=O)O)c2ccc(F)cc2n1 [Compound 33, (S)-4-(((3,3-difluorocyclobutyl)methyl) (4-(5,6,7,8-tetrahydro-1,8-naphthyridin-2-yl)butyl)amino)-2-((7-fluoro-2-methylquinazolin-4-yl)amino) butanoic Acid]
O=C(O)[C@H](CCN(CCCCc1ccc2c(n1)NCCC2)CCOC(F)F)Nc1ncnc2ccccc12 [Compound 35, (S)-4-((2-(difluoromethoxy)ethyl) (4-(5,6,7,8-tetrahydro-1,8-naphthyridin-2-yl)butyl)amino)-2-(quinazolin-4-ylamino) butanoic Acid]
COCCN(CCCCc1ccc2c(n1)NCCC2)CC[C@H](Nc1ncnc2c(Cl)cccc12)C(=O)O [Compound 38, (S)-2-((8-chloroquinazolin-4-yl)amino)-4-((2-methoxyethyl) (4-(5,6,7,8-tetrahydro-1,8-naphthyridin-2-yl)butyl)amino) butanoic Acid]
O=C(O)[C@H](CCN(CCCCc1ccc2c(n1)NCCC2)CCOCC(F)(F)F)Nc1ncnc2ccccc12 [Compound 39, (S)-2-(quinazolin-4-ylamino)-4-((4-(5,6,7,8-tetrahydro-1,8-naphthyridin-2-yl)butyl) (2-(2,2,2-trifluoroethoxy)ethyl)amino) butanoic Acid]
Cc1nc(N[C@@H](CCN(CCCCc2ccc3c(n2)NCCC3)CCOc2ccc(F)cc2)C(=O)O)c2ccc(F)cc2n1 [Compound 40, (S)-2-((7-fluoro-2-methylquinazolin-4-yl)amino)-4-((2-(4-fluorophenoxy)ethyl) (4-(5,6,7,8-tetrahydro-1,8-naphthyridin-2-yl)butyl)amino) butanoic Acid]
COc1ccc2c(N[C@@H](CCN(CCCF)CCCCc3ccc4c(n3)NCCC4)C(=O)O)ncnc2c1 [Compound 41, (S)-4-((3-fluoropropyl) (4-(5,6,7,8-tetrahydro-1,8-naphthyridin-2-yl)butyl)amino)-2-((7-methoxyquinazolin-4-yl)amino) butanoic Acid]
Cc1nc(N[C@@H](CCN(CCCCc2ccc3c(n2)NCCC3)CCOC2CC2(F)F)C(=O)O)c2ccc(F)cc2n1 (stereo partly drawn) [Compound 42, (2S)-4-((2-(2,2-difluorocyclopropoxy)ethyl) (4-(5,6,7,8-tetrahydro-1,8-naphthyridin-2-yl)butyl)amino)-2-((7-fluoro-2-methylquinazolin-4-yl)amino) butanoic Acid]
COc1cccc2c(N[C@@H](CCN(CCCF)CCCCc3ccc4c(n3)NCCC4)C(=O)O)ncnc12 [Compound 43, (S)-4-((3-fluoropropyl) (4-(5,6,7,8-tetrahydro-1,8-naphthyridin-2-yl)butyl)amino)-2-((8-methoxyquinazolin-4-yl)amino) butanoic Acid]
COCCN(CCCCc1ccc2c(n1)NCCC2)CC[C@H](Nc1cc(-n2cccn2)ncn1)C(=O)O [Compound 44, (S)-2-((6-(1H-pyrazol-1-yl)pyrimidin-4-yl)amino)-4-((2-methoxyethyl) (4-(5,6,7,8-tetrahydro-1,8-naphthyridin-2-yl)butyl)amino) butanoic Acid]
Cc1cc(C)n(CCN(CCCCc2ccc3c(n2)NCCC3)CC[C@H](Nc2ncnc3ccccc23)C(=O)O)n1 [Compound 45, (S)-4-((2-(3,5-dimethyl-1H-pyrazol-1-yl)ethyl) (4-(5,6,7,8-tetrahydro-1,8-naphthyridin-2-yl)butyl)amino)-2-(quinazolin-4-ylamino) butanoic Acid]
COC[C@@H](F)CN(CCCCc1ccc2c(n1)NCCC2)CC[C@H](Nc1nc(C)nc2ccccc12)C(=O)O [Compound 46, (S)-4-(((S)-2-fluoro-3-methoxypropyl) (4-(5,6,7,8-tetrahydro-1,8-naphthyridin-2-yl)butyl)amino)-2-((2-methylquinazolin-4-yl)amino) butanoic Acid]
O=C(O)[C@H](CCN(CCCCc1ccc2c(n1)NCCC2)CCOc1cc(F)cc(F)c1)Nc1ncnc2ccccc12 [Compound 47, (S)-4-((2-(3,5-difluorophenoxy)ethyl) (4-(5,6,7,8-tetrahydro-1,8-naphthyridin-2-yl)butyl)amino)-2-(quinazolin-4-ylamino) butanoic Acid]
O=C(O)[C@H](CCN(CCCCc1ccc2c(n1)NCCC2)CCOc1ccccn1)Nc1ncnc2c(Cl)cccc12 [Compound 48, (S)-2-((8-chloroquinazolin-4-yl)amino)-4-((2-(pyridin-2-yloxy)ethyl) (4-(5,6,7,8-tetrahydro-1,8-naphthyridin-2-yl)butyl)amino) butanoic Acid]
O=C(O)[C@H](CCN(CCCCc1ccc2c(n1)NCCC2)CCOc1ccccn1)Nc1ncnc2ccccc12 [Compound 49, (S)-4-((2-(pyridin-2-yloxy)ethyl) (4-(5,6,7,8-tetrahydro-1,8-naphthyridin-2-yl)butyl)amino)-2-(quinazolin-4-ylamino) butanoic Acid]
O=C(O)[C@H](CCN(CCCCc1ccc2c(n1)NCCC2)CCOCC(F)F)Nc1ncnc2ccccc12 [Compound 50, (S)-4-((2-(2,2-difluoroethoxy)ethyl) (4-(5,6,7,8-tetrahydro-1,8-naphthyridin-2-yl)butyl)amino)-2-(quinazolin-4-ylamino) butanoic Acid]
O=C(O)[C@H](CCN(CCCCc1ccc2c(n1)NCCC2)CCOCC(F)(F)F)Nc1ncnc2cccnc12 [Compound 51, (S)-2-(pyrido[3,2-d]pyrimidin-4-ylamino)-4-((4-(5,6,7,8-tetrahydro-1,8-naphthyridin-2-yl)butyl) (2-(2,2,2-trifluoroethoxy)ethyl)amino) butanoic Acid]
Cc1ncccc1OCCN(CCCCc1ccc2c(n1)NCCC2)CC[C@H](Nc1ncnc2ccccc12)C(=O)O [Compound 52, (S)-4-((2-((2-methylpyridin-3-yl)oxy)ethyl) (4-(5,6,7,8-tetrahydro-1,8-naphthyridin-2-yl)butyl)amino)-2-(quinazolin-4-ylamino) butanoic Acid]
